What was measured:
NC/Nga mice [1] = assay: Dermatitis severity score in HDM (Biostir-AD)-induced AD-like skin lesions; assay type: in vivo; details: topical 100 μL/mouse daily for 4 weeks, Day 48, mean ± SD, n = 10
Protocol: (§1) To induce experimental AD-like skin lesions in mouse, we used cutaneous Biostir-AD for challenging NC/Nga mice, according to the manufacturer’s instructions. After 1 week of acclimation, AD was induced. Briefly, the dorsal part of each mouse was shaved with an electric shaver, and then the remaining hair was removed using a depilatory cream. Twice weekly for three weeks, growing hair was shaved with the electric shaver, followed by application of 150 μL of 4% sodium dodecyl sulfate to the treated area (barrier disruption). Biostir-AD (200 mg/mouse) was applied 3 h after barrier disruption. Fifty mice were divided into five groups of five mice per cage (n = 10 per group): group 1, control (Biostir-AD + vehicle (distilled water only)); group 2, 0.1% tacrolimus (Biostir-AD + Protopic (positive control)); group 3, 0.004% Ac-RLYE (Biostir-AD + 0.004% Ac-RLYE in distilled water); group 4, 0.02% Ac-RLYE (Biostir-AD + 0.02% Ac-RLYE in distilled water); and group 5, 0.1% Ac-RLYE (Biostir-AD + 0.1% Ac-RLYE in distilled water). Ac-RLYE or 0.1% tacrolimus (100 μL/mouse) was applied daily for 4 weeks. The concentration of Ac-RLYE used in the present study was determined based on the results of previous preliminary experiments (unpublished data). The mice were sacrificed after 4 weeks of Ac-RLYE treatment (Figure 2A, on Day 48). The severity of the dermatitis was measured macroscopically and scored once a week by using a previously established method based on the clinical signs and symptoms of AD, namely, erythema (hemorrhage), edema, excoriation (erosion), and scaling (dryness). The total dermatitis severity score was defined as the sum of the component scores (0, no symptoms; 1, mild; 2, moderate; 3, severe) for each mouse, ranging from 0 to 12.

filaggrin (FLG) = assay: Skin filaggrin (FLG) ELISA; assay type: in vivo, mouse; details: n = 10; for FLG level in dorsal skin: mean ± SD
Protocol: as §1, with “dorsal skin was collected from mice after 4 weeks” for “severity”, “Ac-RLYE or tacrolimus treatment and stored at −80 °C until use. The dorsal skin tissues were homogenized in RIPA lysis buffer containing a protease inhibitor and a phosphatase inhibitor and centrifuged at 13,000 rpm for 10 min at 4 °C. The supernatant” for “the dermatitis”, “collected for” for “measured macroscopically and scored once”, “protein assay” for “week by”, “Pierce™ BCA Protein Assay Kit (Thermo Fisher Scientific, Inc., Waltham, MA, USA). The level of FLG in mouse skin tissue was quantified using an ELISA kit (MyBioSource, Inc., San Diego, CA, USA) in accordance with” for “previously established method based on”, “manufacturer’s instructions.” for “clinical signs and symptoms of AD, namely, erythema (hemorrhage), edema, excoriation (erosion), and scaling (dryness). The total dermatitis severity score was defined as the sum of the component scores (0, no symptoms; 1, mild; 2, moderate; 3, severe) for each mouse, ranging from 0 to 12.”

[2] = tested on: Th1, Th2 and Th17 cytokines; assay: qRT-PCR of cytokine mRNA in AD-like skin lesions; assay type: in vivo, mouse; details: skin at Day 48, normalized to GAPDH, versus vehicle, n = 10
Protocol: as §1, with “48).” for “48). The severity of the dermatitis was measured macroscopically and scored once a week by using a previously established method based on the clinical signs and symptoms of AD, namely, erythema (hemorrhage), edema, excoriation (erosion), and scaling (dryness). The total dermatitis severity score was defined as the sum of the component scores (0, no symptoms; 1, mild; 2, moderate; 3, severe) for each mouse, ranging from 0 to 12.”
Both the ear and dorsal skin of each mouse were excised using a surgical knife, pooled, and used for RNA isolation. Total RNA was prepared using an RNA isolation kit (GeneAll® Hybrid-R™, GeneAll, Korea) following the manufacturer’s instructions. RNA was quantified using a BioTek Take3^TM Multi-Volume plate (Agilent BioTek Instruments, Winooski, VT, USA). An equal amount of total RNA was reverse-transcribed using ReverTra Ace™ qPCR RT Master Mix with gDNA Remover (Toyobo CO., LTD., Osaka, Japan) according to the manufacturer’s instructions. Real time-PCR was performed on a CFX96™ Touch Real-Time PCR System (Bio-Rad, Hercules, CA) using TB Green® Premix Ex Taq™ (Takara, Shiga, Japan). Quantification of the target gene expression was determined by the comparative […] method. The relative expression levels were determined by normalizing expression to glyceraldehyde 3-phosphate dehydrogenase (GAPDH). The level of each target gene was expressed as the relative fold change.

NC/Nga mice [3] = assay: Ear thickness in HDM-induced AD model; assay type: in vivo, mouse; details: n = 10
Protocol: as §1, with “The mice were sacrificed after 4 weeks of Ac-RLYE treatment (Figure 2A, on Day 48). The severity of the dermatitis was measured macroscopically and scored once a week by using a previously established method based on the clinical signs and symptoms of AD, namely, erythema (hemorrhage), edema, excoriation (erosion), and scaling (dryness). The total dermatitis severity score was defined as the sum of the component scores (0, no symptoms; 1, mild; 2, moderate; 3, severe) for each mouse, ranging from 0 to 12.” left out
Ear thickness was measured on the first day of Ac-RLYE application and then once a week using calipers.

HUVECs = assay: Immunofluorescence of ZO-1 and VE-cadherin junctions in VEGF-A-stimulated HUVECs; assay type: cell-based, human; details: HUVECs pre-treated 30 min with 0.15 nM Ac-RLYE, then 10 ng/mL VEGF-A for 1 h; confocal immunofluorescence, Image J; n = 3
Protocol: Figure 1 Ac-RLYE inhibits VEGF-A-induced junctional integrity loss in HUVECs. Cells were pre-treated for 30 min with Ac-RLYE (0.15 nM) followed by stimulation with 10 ng/mL VEGF-A (V) for 1 h. (A) Confocal images of ZO-1 and VE-cadherin. (B) Quantification of ZO-1 and VE-cadherin at contact sites between endothelial cells (n = 3). Data are represented as mean ± SD values. *** p < 0.001.
Collagenase type II (Worthington Biochemical Corporation, Lakewood, NJ) was used to isolate human umbilical vein endothelial cells (HUVECs) from umbilical cord veins. The cells were cultured on gelatin-coated plates in Medium 199 supplemented with 20% FBS, 100 U/mL penicillin–streptomycin, 3 ng/mL bFGF, and 5 U/mL heparin. Trypsinization was used to collect the cells (up to passage 7), which were then used for assays.
HUVECs were grown as a monolayer on 2% gelatin-coated cover glasses and cultured in M199 medium containing 1% FBS. The cells were pretreated with 0.15 nM Ac-RLYE for 30 min and stimulated with 10 ng/mL VEGF-A for 1 h. […] The levels of VE-cadherin and ZO-1 were quantified using Image J software.

IgE = assay: Plasma IgE ELISA; assay type: in vivo, mouse; details: Day 48, topical application, versus vehicle-treated group, n = 10
Protocol: (§2) To induce experimental AD-like skin lesions in mouse, we used cutaneous Biostir-AD for challenging NC/Nga mice, according to the manufacturer’s instructions. After 1 week of acclimation, AD was induced. Briefly, the dorsal part of each mouse was shaved with an electric shaver, and then the remaining hair was removed using a depilatory cream. Twice weekly for three weeks, growing hair was shaved with the electric shaver, followed by application of 150 μL of 4% sodium dodecyl sulfate to the treated area (barrier disruption). Biostir-AD (200 mg/mouse) was applied 3 h after barrier disruption. […] The concentration of Ac-RLYE used in the present study was determined based on the results of previous preliminary experiments (unpublished data). […]
The blood samples were drawn from mice, and the plasma was separated by centrifugation at 10,000× g for 10 min at 4 °C and stored at −80 °C until tested. The plasma level of IgE was measured by ELISA according to the manufacturer’s instructions (Mouse IgE ELISA Kit, Abcam, Cambridge, UK).

NC/Nga mice [4] = assay: Differential cell counting of blood; assay type: in vivo, mouse; details: differential counting at Day 48; versus vehicle-treated control; n = 10
Protocol: as §1, with “48).” for “48). The severity of the dermatitis was measured macroscopically and scored once a week by using a previously established method based on the clinical signs and symptoms of AD, namely, erythema (hemorrhage), edema, excoriation (erosion), and scaling (dryness). The total dermatitis severity score was defined as the sum of the component scores (0, no symptoms; 1, mild; 2, moderate; 3, severe) for each mouse, ranging from 0 to 12.”
Whole blood samples were collected from the mice and used for analysis. […]

NC/Nga mice [5] = assay: Mast cell infiltration (toluidine blue staining); assay type: in vivo, mouse; details: Day 48, versus vehicle-treated group, n = 10
Protocol: as §2
(§3) The dorsal skin tissues were isolated, fixed in 10% formalin immediately after excision from the mice, and embedded in paraffin. […] Skin samples were observed and measured with an Olympus BX53 light microscope (Olympus Corporation, Tokyo, Japan). From the histopathological findings, the severity of skin manifestations was assessed on the epidermis (hypertrophy, hyperkeratosis, and infiltration by inflammatory cells) and on the dermis (infiltration by inflammatory cells) and was expressed as the sum of the individual score grades from 0 to 3 (0, no symptoms; 1, mild; 2, moderate; 3, severe), as described previously. […]

NC/Nga mice [6] = assay: Histological analysis (H&E) of AD-like skin lesions; assay type: in vivo, mouse; details: n = 10
Protocol: as §2, §3

| Compound | Dermatitis score (sum of erythema, edema, excoriation, scaling; 0-12) (NC/Nga mice [1]; 0.1% tacrolimus ointment (Protopic)) | FLG level in dorsal skin (filaggrin (FLG); 0.1% tacrolimus ointment topical daily for 4 weeks) [pg/mL] | Expression of IFN-γ [2] | Expression of IL-17A (Th17 cytokine) [2] | Expression of Th1 cytokines IL-23 and TNF-α [2] | mRNA levels of Th2-type cytokines IL-4, IL-13, IL-31 and Th2 chemokine CCL17 [2] | Effect on ear thickness compared with tacrolimus (NC/Nga mice [3]; doses above 0.02%, Day 48) | Increase in ear thickness after HDM (NC/Nga mice [3]; topical 0.004-0.1% once daily for 4 weeks, dose-dependent, versus vehicle) | Dermatitis score (sum of erythema, edema, excoriation, scaling; 0-12) (NC/Nga mice [1]; 0.004% in distilled water) | Dermatitis score (sum of erythema, edema, excoriation, scaling; 0-12) (NC/Nga mice [1]; 0.02% in distilled water) | Dermatitis score (sum of erythema, edema, excoriation, scaling; 0-12) (NC/Nga mice [1]; 0.1% in distilled water) | FLG level in dorsal skin (filaggrin (FLG); 0.1% Ac-RLYE topical daily for 4 weeks) [pg/mL] | Protein level of FLG versus vehicle-treated AD group (filaggrin (FLG); Ac-RLYE groups 0.004-0.1%, dose-dependent) | VEGF-induced cellular junction disruption (ZO-1 and VE-cadherin at cell-cell contact sites) (HUVECs) | Plasma IgE (IgE) | Number of leukocytes, neutrophils and eosinophils in blood (NC/Nga mice [4]) | Accumulation of mast cells in AD-like skin lesion (NC/Nga mice [5]) | Infiltration of inflammatory cells in epidermis and dermis (NC/Nga mice [6]; Day 48, all Ac-RLYE-treated groups versus vehicle-treated HDM group) | Scores of hypertrophy and hyperkeratosis in epidermis (NC/Nga mice [6]; Day 48, versus vehicle-treated HDM group) |
| --- | --- | --- | --- | --- | --- | --- | --- | --- | --- | --- | --- | --- | --- | --- | --- | --- | --- | --- | --- |
| C=CC[C@@H]1/C=C(\C)C[C@H](C)C[C@H](OC)[C@H]2O[C@@](O)(C(=O)C(=O)N3CCCC[C@H]3C(=O)O[C@H](/C(C)=C/[C@@H]3CC[C@@H](O)[C@H](OC)C3)[C@H](C)[C@@H](O)CC1=O)[C@H](C)C[C@@H]2OC [tacrolimus, reference compound] | 4.5 ± 2.4 | 1444.8 ± 110.5 |  |  |  |  |  |  |  |  |  |  |  |  |  |  |  |  |  |
| N-acetyl-Arg-Leu-Tyr-Glu [Ac-RLYE] |  |  | increased | suppressed | inhibited | remarkably inhibited | slightly better than that of tacrolimus | significantly attenuated | 7.4 ± 0.8 | 5.8 ± 2.3 | 4.5 ± 2.4 | 1469.4 ± 105.2 | significantly restored | significantly attenuated | significantly lowered | dose-dependently lowered | reduced | less infiltration | decreased |
